Results as given in patent publication US12250948B2, “Methods for the control of arthropods using near-ideal gas phase hydrogen peroxide” (Synexis LLC, priority 2013, dated 2025).
Where two headings read alike, the source gives them in different places.

Assays:
[1] = system: arthropods including crickets, ants, spiders, and house flies; experiment: Real world test of PHPG in 1400 sq ft Pool House; settings: after 27 hours
Description: All PHPG concentration readings take place with Draeger products. A Pac III, Polytron 7000 or Draeger Tubes are utilized in all tests, generally according to manufacturer's instructions. […] Most commonly, Draeger Tubes are used after clipping on both ends and placement in a ACCURO™ Pump. Per manufacturer instructions, the tubes are pumped 100 times and the level of PHPG determined by observing the color change in the crystals.
Two PHPG generating devices were placed in the space for an initial cleansing and to establish levels.

[2] = system: Lice and nits
[3] = system: Crickets; settings: PHPG 0.4 ppm
[4] = system: House Flies; settings: PHPG 0.2 ppm
[5] = system: Cellar Spiders; settings: PHPG 1.0 ppm
Description: (§1) The effects of Purified Hydrogen Peroxide Gas (PHPG) on selected arthropod species is performed to determine the efficacy on controlling an arthropod using the indirect dispersion of PHPG in a space. In these experiments, the knockdown and mortality rates in mosquitoes, bed bugs, termites, ants, moths, house flies, and spiders is assessed.
(§2) Black wood ants, house flies (adult and pupae), large saturniid moths, termites (soldier and living), and cellar spiders are obtained from Carolina Supplies and shipped overnight. All organisms are fed prior to shipping from Carolina Supplies. Bed bugs and mosquitoes are sourced locally due to government shipping restrictions. The test samples are stored in a cabinet at ambient temperature and humidity until use in the study. The samples are labeled and color-coded for easy identification. In certain experiments, specimens of wild caught arthropods are used in the controlled experiments, including for example Brazilian cockroaches.
(§3) All testing is conducted in a sealed, Static Dissipative PVC chamber, Terra Universal (Fullerton, CA) Model 3305-10F: 59 inches W×24 inches D×25 inches H. With additional airlock Terra Universal Model 1680-81B 11.5 inches W×10 inches D×10.5 inches 1-1. Arthropods are placed inside transfer containers (pint size paper containers). The top and bottom diameters of these containers are 3.75 and 2.87 inches respectively with a height of 3.5 inches. All arthropods are released once the airlock is sealed. Arthropods are allowed to recover following PHPG exposure and observed in 8 oz glass Pyrex@(Tewksbury, MA) containers with sealed glass lids.
(§4) Three replicates of ten of each arthropod are subjected to PHPG. An additional three replicates are subjected to a non PHPG producing device and serve as untreated controls. The arthropods are observed for knockdown at 0.5, 1, 2, 3, 4, 5, and 15 minutes. Mortality counts are taken after 24 hours of PHPG exposure. If at 24 hours mortality is less 90%, additional readings are taken following 48 hours of PHPG exposure. The test samples are exposed to the test environment containing PHPG until a 90% knockdown is achieved. The test samples are provided PHPG emitted from a PHPG producing device in the center of the test chamber. Time frames are recorded for each replicate. Just prior to treatment the arthropods are transferred into the transfer containers. Forty eight hours after treatment, they are removed from the treatment chamber and transferred to recovery containers and covered with screened lids for observation.
(§5) Knockdown occurs when an arthropod cannot right itself when placed on its back but is still able to move at least one body part. The arthropods are then transferred from the treatment chamber to recovery containers. Another knockdown/mortality observation is made 15 minutes later.
(§6) If all ten arthropods are recorded as knocked down or deceased during any observation before 15 minutes have elapsed, subsequent observations are not made. Mortality counts are made at 24 hours, and 48 hours or sooner (if applicable). All dead arthropods are confirmed by probing or agitation to make sure that they are unable to move (any that show movement visible to the naked eye are recorded as moribund). Arthropods that can crawl or right themselves when placed on their backs are recorded as being alive.
(§7) After the knockdown counts are complete, the arthropods are maintained in the laboratory at ambient temperature and humidity conditions with a normal 8:16 light:dark cycle for 24 hours. Additional mortality readings are taken at 48 hours if less than 90% mortality is recorded at 24 hours. A 48 hour reading depends upon control mortality remaining less than 10%. Temperature and humidity are recorded in the treatment area, and in the laboratory where the arthropods are subsequently held for the duration of the test.

[6] = system: Carpenter Ants; settings: PHPG 1.0 ppm
Description: as §1, §2, §3, §4, §5, §6, §7

[7] = system: Bedbugs; settings: PHPG 0.6 ppm
Description: as §1, §2, §3, §4, §5, §6, §7

[8] = system: Tarantula
Description: as §1, §2, §3, §4, §5, §6, §7

[9] = system: Fruit Flies; settings: PHPG 0.3 ppm, exposure 72 hours
Description: as §1, §2, §3, §4, §5, §6, §7

[10] = system: House Fly Pupae; settings: PHPG 0.5 ppm
Description: as §1, §2, §3, §4, §5, §6, §7

[11] = system: Deer Ticks; settings: PHPG 0.6 ppm
Description: as §1, §2, §3, §4, §5, §6, §7

[12] = system: Termites
Description: as §1, §2, §3, §4, §5, §6, §7

[13] = system: Wolf Spiders; settings: PHPG 1.0 ppm
Description: as §1, §2, §3, §4, §5, §6, §7

[14] = system: Cockroaches
Description: as §1, §2, §3, §4, §5, §6, §7

[15] = system: Brown Dog Tick; experiment: Laboratory chamber test of PHPG, knockdown and mortality; format: in vivo; settings: PHPG 0.6 ppm
Description: as §1, §2, §3
Three replicates of ten of each arthropod are subjected to PHPG. […] If at 24 hours mortality is less 90%, additional readings are taken following 48 hours of PHPG exposure. […] Time frames are recorded for each replicate. […]
If all ten arthropods are recorded as knocked down or deceased during any observation before 15 minutes have elapsed, subsequent observations are not made. […] All dead arthropods are confirmed by probing or agitation to make sure that they are unable to move (any that show movement visible to the naked eye are recorded as moribund). Arthropods that can crawl or right themselves when placed on their backs are recorded as being alive.
as §7

[16] = system: Mosquitoes; settings: PHPG 0.2 ppm
[17] = system: Yellow Jackets and Nest; settings: PHPG 0.3 ppm
[18] = system: Stink Bugs; settings: PHPG 0.3 ppm

Question: How did the Live insects observed ([1]; PHPG 0.4 ppm) turn out when `OO` [PHPG, Purified Hydrogen Peroxide Gas] was run?
Answer: Its Live insects observed is “No live insects were observed”.

Question: What about the “Number of arthropods confirmed dead” value ([1]; two PHPG generating devices, PHPG 0.4 ppm at 27 hours) of the same molecule?
Answer: Its value is 109.

Question: And the “Percent Killed” value ([2]; Lice and nits, PHPG 0.2 ppm, exposure 2 days)?
Answer: Its value is 100%.

Question: What about the “Observations: bedding and other exposed items” value ([2]; Lice and nits, PHPG 0.2 ppm, within two days) of the same molecule?
Answer: The value was “items fully treated within two”.

Question: What about the “Elimination of all signs of lice” value ([2]; child subject, from initiation of PHPG treatment) of the same molecule?
Answer: The value was “lice free within two days”.

Question: And the “Percent Killed” value ([3]; exposure 21 hours, garden house)?
Answer: The value was 100%.

Question: And the “Attempt to Flee?” value ([3]; tried to exit through HVAC vents)?
Answer: Its value is “Yes”.

Question: And the “Attempt to Flee?” value [4]?
Answer: The value was “Yes”.

Question: And the “Observations: final outcome” value [4]?
Answer: The value was “All died within day”.

Question: And the “Observations: first deaths within” value [4]?
Answer: Its value is “one hour”.

Question: What about the “Percent Killed” value ([4]; exposure 24 hours) of the same molecule?
Answer: The value was 100%.

Question: What about the “Attempt to Flee?” value [5] of the same molecule?
Answer: The value was “Yes”.

Question: What about the “Observations: smallest spiders died within” value [5] of the same molecule?
Answer: The value was “one hour. Larger spiders”.

Question: And the “Percent Killed” value ([5]; exposure 24 Hours)?
Answer: The value was 33%.

Question: What about the “Attempt to Flee?” value [6] of the same molecule?
Answer: The value was “Yes”.

Question: What about the “Observations: order of death” value [6] of the same molecule?
Answer: The value was “exit. Smallest ants died first”.

Question: What about the “Percent Killed” value ([6]; exposure 24 Hours) of the same molecule?
Answer: Its value is 15%.

Question: And the “Observations: ants collected in areas where fresh air was seeping into the chamber and remained inactive” value ([6]; when unable to flee)?
Answer: The value was “When unable 50% collected”.

Question: And the “Observations: nymphs” value ([7]; Bedbug nymphs hatched from immature eggs)?
Answer: Its value is “Nymphs died in seconds”.

Question: And the “Observations: all bedbugs reacted within” value ([7]; Bedbugs)?
Answer: Its value is “fifteen seconds”.

Question: What about the “Observations: final outcome” value ([7]; Bedbugs) of the same molecule?
Answer: The value was “All died over time”.

Question: And the “Percent Killed” value ([7]; Bedbugs, exposure 3 hours)?
Answer: Its value is 50%.

Question: And the “Percent Killed” value ([7]; Bedbugs, exposure 60 hours)?
Answer: Its value is 100%.

Question: What about the “Attempt to Flee?” value ([7]; Bedbugs, cell continues 'Went Dormant') of the same molecule?
Answer: Its value is “No,”.

Question: And the “Attempt to Flee?” value ([8]; Tarantula, PHPG 0.6 ppm)?
Answer: Its value is “No”.

Question: What about the “Percent Killed” value ([8]; Tarantula, PHPG 0.6 ppm, exposure 24 hours) of the same molecule?
Answer: The value was 0%.

Question: What about the Observations ([8]; Tarantula, PHPG 0.6 ppm, did not react to the gas) of the same molecule?
Answer: Its Observations is “Appeared resistant. Did not”.

Question: What about the “Resistance to PHPG” value ([8]; tarantula spiders, PHPG levels up to 0.6 ppm for 24 hours) of the same molecule?
Answer: Its value is “resistant”.

Question: And the “Percent Killed” value [9]?
Answer: The value was 100%.

Question: And the “Observations: hatching” value ([10]; 100 pupae expected to hatch within 3 days, within one week)?
Answer: Its value is “within 3 days. Did not hatch”.

Question: And the “Percent Killed” value ([10]; House Fly Pupae, exposure 7 days)?
Answer: Its value is 100%.

Question: What about the “Attempt to Flee?” value [11] of the same molecule?
Answer: Its value is “Yes”.

Question: What about the “Percent Killed” value ([11]; exposure 3 hours) of the same molecule?
Answer: Its value is 70%.

Question: What about the “Percent Killed” value ([11]; exposure 60 hours) of the same molecule?
Answer: Its value is 100%.

Question: And the Observations ([11]; until they succumbed)?
Answer: The Observations was “All ticks searched for an exit”.

Question: And the “Attempt to Flee?” value ([12]; PHPG 0.1 ppm, cell continues 'Then went dormant')?
Answer: Its value is “Yes,”.

Question: What about the “Percent Killed” value ([12]; PHPG 0.1 ppm, exposure 24 hours) of the same molecule?
Answer: The value was 100%.

Question: And the Observations ([12]; very low exposure (PHPG 0.1 ppm), sought shelter)?
Answer: The Observations was “went dormant. Larger”.

Question: What about the “Attempt to Flee?” value [13] of the same molecule?
Answer: The value was “Yes”.

Question: What about the Observations [13] of the same molecule?
Answer: The Observations was “Very susceptible; and”.

Question: And the “Percent Killed” value ([13]; exposure 1 hour)?
Answer: Its value is 100%.

Question: And the “Attempt to Flee?” value ([14]; Cockroaches, PHPG 0.6 ppm)?
Answer: The value was “No”.

Question: And the “Percent Killed” value ([14]; Cockroaches, PHPG 0.6 ppm, exposure 24 Hours)?
Answer: The value was 0%.

Question: And the Observations ([14]; Cockroaches, low level of PHPG (0.6 ppm), did not react to the gas)?
Answer: The Observations was “Appeared resistant at low”.

Question: And the “Resistance to PHPG” value ([14]; adult cockroaches, PHPG levels up to 0.6 ppm for 24 hours)?
Answer: The value was “resistant”.

Question: What about the “Attempt to Flee?” value [15] of the same molecule?
Answer: Its value is “Yes”.

Question: And the “Percent Killed” value ([15]; exposure 3 hours)?
Answer: The value was 70%.

Question: What about the “Percent Killed” value ([15]; exposure 60 hours) of the same molecule?
Answer: Its value is 100%.

Question: What about the Observations ([15]; until they succumbed) of the same molecule?
Answer: Its Observations is “All ticks searched for an exit”.

Question: And the “Attempt to Flee?” value [16]?
Answer: The value was “Yes”.

Question: What about the “Percent Killed” value ([16]; exposure 2 hours) of the same molecule?
Answer: The value was 100%.

Question: And the “Observations: unhatched yellow jackets in the nest” value ([17]; 1 day, nest was hatching)?
Answer: Its value is “jackets in the nest died”.

Question: And the “Percent Killed” value ([17]; Yellow Jackets and Nest, exposure 1 day)?
Answer: Its value is 100%.

Question: What about the “Attempt to Flee?” value ([17]; Yellow Jackets) of the same molecule?
Answer: The value was “Yes”.

Question: What about the “Attempt to Flee?” value [18] of the same molecule?
Answer: Its value is “Yes”.

Question: And the “Percent Killed” value ([18]; exposure 24 hours)?
Answer: The value was 100%.
